Values quoted from earlier work, collected in patent US20150140121A1, “Compositions and Methods for Tight Junction Modulation” (Lankenau Institute for Medical Research, priority 2012, published 2015).

Columns and labels:
occludin = conditions: CACO-2 and HT-29/B6 cell layers, cited from earlier work
claudin-1 = conditions: berberine; CACO-2 and HT-29/B6 cell layers; cited from earlier work
claudin 2 = conditions: berberine; CACO-2 and HT-29/B6 cell layers; cited from earlier work
claudin 3 = conditions: berberine; CACO-2 and HT-29/B6 cell layers; cited from earlier work
claudin-4 = conditions: berberine; CACO-2 and HT-29/B6 cell layers; cited from earlier work
claudin 5 = conditions: berberine; CACO-2 and HT-29/B6 cell layers; cited from earlier work
claudin 7 = conditions: berberine; CACO-2 and HT-29/B6 cell layers; cited from earlier work
[1] = tested on: colonc epithelial (CACO-2 and HT-29/B6) cell layers; conditions: berberine 50 micromolar, Li et al. 2010, Amasheh et al. 2010; cited from earlier work

In the case of COc1ccc2cc3[n+](cc2c1OC)CCc1cc2c(cc1-3)OCO2 [berberine], the “occludin redistribution that ensues from proinflammatory cytokine exposure” value (occludin; berberine 50 micromolar) is listed as “prevents”, the amount of occludin (occludin; berberine) is listed as “no effect” and the “cellular amount of claudin 1” value (claudin-1) is listed as “Strong effects”. For the same molecule, the “cellular amount of claudin 2” value (claudin 2) was “Strong effects”, the “amount of claudin 3” value (claudin 3) was “no effect” and the “amount of claudin 4” value (claudin-4) was “no effect”. The “amount of claudin 5” value (claudin 5) was “no effect”, the “amount of claudin 7” value (claudin 7) was “no effect” and the “TJ leakiness that ensues from proinflammatory cytokine exposure” value [1] was “prevents”.
